The results in this text go back to patent publication US20090298834A1, “4-(AMINOMETHYL)CYCLOHEXANAMINE DERIVATIVES AS CALCIUM CHANNEL BLOCKERS” (priority 2008, published 2009).

Test [1] deals with T1, human α1G T-type channels (Homo sapiens, UniProt O43497).
T1 construct: expressed in transfected cells; host or cells: HEK 293
Briefly: T-type calcium channel block, whole cell patch clamp (α1G). To be noted: HEK cells stably expressing human α1G; mainly non-inactivated protocol; values above 10 μM represented as 10 μM, values below 0.30 μM represented as 0.30 μM. Type of test: cell-based. How it is done: (§1) T-type calcium channel blocking activity was assayed in human embryonic kidney cells, HEK 293, stably transfected with the T-type calcium channel subunits. Briefly, cells were cultured in Dulbecco's modified eagle medium (DMEM) supplemented with 10% fetal bovine serum, 200 U/ml penicillin and 0.2 mg/ml streptomycin at 37° C. with 5% CO2. At 85% confluency cells were split with 0.25% trypsin/1 mM EDTA and plated at 10% confluency on glass coverslips. At 12 hours the medium was replaced and the cells stably transfected using a standard calcium phosphate protocol and the appropriate calcium channel cDNA's. Fresh DMEM was supplied and the cells transferred to 28° C./5% CO2. Cells were incubated for 1 to 2 days prior to whole cell recording.
(§2) Standard patch-clamp techniques were employed to identify blockers of T-type currents. Briefly, previously described HEK cell lines stably expressing human α1G, α1H and α1I T-type channels were used for all the recordings (passage #: 4-20, 37° C., 5% CO2). Whole cell patch clamp experiments were performed using an Axopatch 200B amplifier (Axon Instruments, Burlingame, Calif.) linked to a personal computer equipped with pCLAMP software. Data were analyzed using Clampfit (Axon Instruments) and SigmaPlot 4.0 (Jandel Scientific). To obtain T-type currents, plastic dishes containing semi-confluent cells were positioned on the stage of a ZEISS AXIOVERT S100 microscope after replacing the culture medium with external solution (see below). Whole-cell patches were obtained using pipettes (borosilicate glass with filament, O.D.: 1.5 mm, I.D.: 0.86 mm, 10 cm length), fabricated on a SUTTER P-97 puller with resistance values of ˜5 MΩ (see below for internal solution).
(§3) In the non-inactivating protocol, the holding potential is set at −110 mV and with a pre-pulse at −100 mV for 1 second prior to the test pulse at −40 mV for 50 ms. In the inactivation protocol, the pre-pulse is at approximately −85 mV for 1 second, which inactivates about 15% of the T-type channels.
(§4) Test compounds were dissolved in external solution, 0.1-0.01% DMSO. After 10 min rest, they were applied by gravity close to the cell using a WPI microfil tubing. The “non-inactivated” pre-pulse was used to examine the resting block of a compound. The “inactivated” protocol was employed to study voltage-dependent block. However, the initial data shown below were mainly obtained using the non-inactivated protocol only. . IC50 values are shown for various compounds of the invention in Table 4 for the drug of interest. Values are shown in μM and values above 10 μM are simply represented as 10 μM.
(Patch clamp records ionic current or voltage across a cell membrane.)

In test [2] the target is T2, human α1H T-type channels (Homo sapiens, UniProt O95180).
T2 construct: expressed in transfected cells; host or cells: HEK 293
T2 sequence (O95180 whole entry): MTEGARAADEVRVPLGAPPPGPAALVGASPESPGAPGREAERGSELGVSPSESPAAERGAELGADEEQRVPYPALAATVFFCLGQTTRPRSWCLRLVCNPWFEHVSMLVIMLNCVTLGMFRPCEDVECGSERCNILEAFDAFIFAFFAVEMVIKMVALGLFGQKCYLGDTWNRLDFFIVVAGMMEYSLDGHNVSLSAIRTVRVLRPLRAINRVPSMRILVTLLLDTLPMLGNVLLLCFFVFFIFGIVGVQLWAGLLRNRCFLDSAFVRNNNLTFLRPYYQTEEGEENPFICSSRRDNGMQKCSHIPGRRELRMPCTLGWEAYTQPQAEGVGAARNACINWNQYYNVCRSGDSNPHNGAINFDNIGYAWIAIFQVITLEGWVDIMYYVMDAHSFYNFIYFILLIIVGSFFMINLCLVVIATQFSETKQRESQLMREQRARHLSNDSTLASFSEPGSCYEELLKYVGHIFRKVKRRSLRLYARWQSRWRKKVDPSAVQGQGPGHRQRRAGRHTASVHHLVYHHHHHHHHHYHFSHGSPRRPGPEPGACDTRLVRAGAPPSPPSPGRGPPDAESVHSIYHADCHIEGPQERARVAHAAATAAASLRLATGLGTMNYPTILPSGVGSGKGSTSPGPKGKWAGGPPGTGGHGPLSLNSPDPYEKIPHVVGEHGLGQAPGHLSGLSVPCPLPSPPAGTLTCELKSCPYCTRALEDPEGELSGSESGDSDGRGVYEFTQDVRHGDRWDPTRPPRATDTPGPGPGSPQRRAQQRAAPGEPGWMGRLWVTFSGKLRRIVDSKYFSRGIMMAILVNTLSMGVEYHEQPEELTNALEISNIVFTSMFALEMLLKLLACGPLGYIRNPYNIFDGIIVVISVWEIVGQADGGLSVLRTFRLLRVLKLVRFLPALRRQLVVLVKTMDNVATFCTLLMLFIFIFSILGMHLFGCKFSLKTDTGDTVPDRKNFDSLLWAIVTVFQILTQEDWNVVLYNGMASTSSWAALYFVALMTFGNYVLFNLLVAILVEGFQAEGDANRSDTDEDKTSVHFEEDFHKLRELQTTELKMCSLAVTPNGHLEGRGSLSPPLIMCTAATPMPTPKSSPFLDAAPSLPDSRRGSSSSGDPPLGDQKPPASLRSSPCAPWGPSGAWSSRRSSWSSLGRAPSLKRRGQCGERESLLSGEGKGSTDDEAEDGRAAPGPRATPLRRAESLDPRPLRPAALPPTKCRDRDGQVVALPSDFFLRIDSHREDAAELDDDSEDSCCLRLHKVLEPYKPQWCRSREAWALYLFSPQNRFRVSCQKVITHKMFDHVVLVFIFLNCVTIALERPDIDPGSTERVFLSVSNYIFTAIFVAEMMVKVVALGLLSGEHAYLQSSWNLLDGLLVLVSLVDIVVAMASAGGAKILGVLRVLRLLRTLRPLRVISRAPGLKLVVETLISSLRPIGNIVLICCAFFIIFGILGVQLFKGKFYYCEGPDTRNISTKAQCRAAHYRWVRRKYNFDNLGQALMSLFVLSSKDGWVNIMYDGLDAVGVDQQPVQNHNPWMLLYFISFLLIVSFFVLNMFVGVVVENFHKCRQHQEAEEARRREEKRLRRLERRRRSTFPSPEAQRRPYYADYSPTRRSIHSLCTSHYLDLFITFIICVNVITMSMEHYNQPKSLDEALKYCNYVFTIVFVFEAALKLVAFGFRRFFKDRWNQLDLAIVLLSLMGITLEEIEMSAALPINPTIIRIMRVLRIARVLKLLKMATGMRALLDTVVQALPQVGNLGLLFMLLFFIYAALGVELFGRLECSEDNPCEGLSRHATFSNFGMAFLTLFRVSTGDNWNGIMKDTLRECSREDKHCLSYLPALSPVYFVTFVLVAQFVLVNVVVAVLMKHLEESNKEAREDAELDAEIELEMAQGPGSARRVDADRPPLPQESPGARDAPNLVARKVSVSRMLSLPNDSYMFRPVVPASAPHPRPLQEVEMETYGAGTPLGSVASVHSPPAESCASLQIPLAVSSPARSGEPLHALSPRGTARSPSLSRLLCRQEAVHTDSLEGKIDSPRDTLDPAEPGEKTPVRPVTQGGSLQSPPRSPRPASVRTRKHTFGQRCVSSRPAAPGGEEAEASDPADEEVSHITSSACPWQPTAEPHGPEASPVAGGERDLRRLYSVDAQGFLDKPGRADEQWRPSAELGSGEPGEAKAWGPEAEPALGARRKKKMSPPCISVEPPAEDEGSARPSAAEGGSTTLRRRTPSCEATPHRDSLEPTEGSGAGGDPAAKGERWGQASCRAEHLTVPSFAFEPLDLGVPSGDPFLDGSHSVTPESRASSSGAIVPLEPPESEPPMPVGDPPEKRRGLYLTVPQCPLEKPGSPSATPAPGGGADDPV
Briefly: T-type calcium channel block, whole cell patch clamp (α1H). To be noted: HEK cells stably expressing human α1H; mainly non-inactivated protocol; values above 10 μM represented as 10 μM. Type of test: cell-based. As to the method:
as §1, §2, §3, §4

The term IC50 denotes the concentration that inhibits the measured activity by half.

T1 sequence (O43497 whole entry): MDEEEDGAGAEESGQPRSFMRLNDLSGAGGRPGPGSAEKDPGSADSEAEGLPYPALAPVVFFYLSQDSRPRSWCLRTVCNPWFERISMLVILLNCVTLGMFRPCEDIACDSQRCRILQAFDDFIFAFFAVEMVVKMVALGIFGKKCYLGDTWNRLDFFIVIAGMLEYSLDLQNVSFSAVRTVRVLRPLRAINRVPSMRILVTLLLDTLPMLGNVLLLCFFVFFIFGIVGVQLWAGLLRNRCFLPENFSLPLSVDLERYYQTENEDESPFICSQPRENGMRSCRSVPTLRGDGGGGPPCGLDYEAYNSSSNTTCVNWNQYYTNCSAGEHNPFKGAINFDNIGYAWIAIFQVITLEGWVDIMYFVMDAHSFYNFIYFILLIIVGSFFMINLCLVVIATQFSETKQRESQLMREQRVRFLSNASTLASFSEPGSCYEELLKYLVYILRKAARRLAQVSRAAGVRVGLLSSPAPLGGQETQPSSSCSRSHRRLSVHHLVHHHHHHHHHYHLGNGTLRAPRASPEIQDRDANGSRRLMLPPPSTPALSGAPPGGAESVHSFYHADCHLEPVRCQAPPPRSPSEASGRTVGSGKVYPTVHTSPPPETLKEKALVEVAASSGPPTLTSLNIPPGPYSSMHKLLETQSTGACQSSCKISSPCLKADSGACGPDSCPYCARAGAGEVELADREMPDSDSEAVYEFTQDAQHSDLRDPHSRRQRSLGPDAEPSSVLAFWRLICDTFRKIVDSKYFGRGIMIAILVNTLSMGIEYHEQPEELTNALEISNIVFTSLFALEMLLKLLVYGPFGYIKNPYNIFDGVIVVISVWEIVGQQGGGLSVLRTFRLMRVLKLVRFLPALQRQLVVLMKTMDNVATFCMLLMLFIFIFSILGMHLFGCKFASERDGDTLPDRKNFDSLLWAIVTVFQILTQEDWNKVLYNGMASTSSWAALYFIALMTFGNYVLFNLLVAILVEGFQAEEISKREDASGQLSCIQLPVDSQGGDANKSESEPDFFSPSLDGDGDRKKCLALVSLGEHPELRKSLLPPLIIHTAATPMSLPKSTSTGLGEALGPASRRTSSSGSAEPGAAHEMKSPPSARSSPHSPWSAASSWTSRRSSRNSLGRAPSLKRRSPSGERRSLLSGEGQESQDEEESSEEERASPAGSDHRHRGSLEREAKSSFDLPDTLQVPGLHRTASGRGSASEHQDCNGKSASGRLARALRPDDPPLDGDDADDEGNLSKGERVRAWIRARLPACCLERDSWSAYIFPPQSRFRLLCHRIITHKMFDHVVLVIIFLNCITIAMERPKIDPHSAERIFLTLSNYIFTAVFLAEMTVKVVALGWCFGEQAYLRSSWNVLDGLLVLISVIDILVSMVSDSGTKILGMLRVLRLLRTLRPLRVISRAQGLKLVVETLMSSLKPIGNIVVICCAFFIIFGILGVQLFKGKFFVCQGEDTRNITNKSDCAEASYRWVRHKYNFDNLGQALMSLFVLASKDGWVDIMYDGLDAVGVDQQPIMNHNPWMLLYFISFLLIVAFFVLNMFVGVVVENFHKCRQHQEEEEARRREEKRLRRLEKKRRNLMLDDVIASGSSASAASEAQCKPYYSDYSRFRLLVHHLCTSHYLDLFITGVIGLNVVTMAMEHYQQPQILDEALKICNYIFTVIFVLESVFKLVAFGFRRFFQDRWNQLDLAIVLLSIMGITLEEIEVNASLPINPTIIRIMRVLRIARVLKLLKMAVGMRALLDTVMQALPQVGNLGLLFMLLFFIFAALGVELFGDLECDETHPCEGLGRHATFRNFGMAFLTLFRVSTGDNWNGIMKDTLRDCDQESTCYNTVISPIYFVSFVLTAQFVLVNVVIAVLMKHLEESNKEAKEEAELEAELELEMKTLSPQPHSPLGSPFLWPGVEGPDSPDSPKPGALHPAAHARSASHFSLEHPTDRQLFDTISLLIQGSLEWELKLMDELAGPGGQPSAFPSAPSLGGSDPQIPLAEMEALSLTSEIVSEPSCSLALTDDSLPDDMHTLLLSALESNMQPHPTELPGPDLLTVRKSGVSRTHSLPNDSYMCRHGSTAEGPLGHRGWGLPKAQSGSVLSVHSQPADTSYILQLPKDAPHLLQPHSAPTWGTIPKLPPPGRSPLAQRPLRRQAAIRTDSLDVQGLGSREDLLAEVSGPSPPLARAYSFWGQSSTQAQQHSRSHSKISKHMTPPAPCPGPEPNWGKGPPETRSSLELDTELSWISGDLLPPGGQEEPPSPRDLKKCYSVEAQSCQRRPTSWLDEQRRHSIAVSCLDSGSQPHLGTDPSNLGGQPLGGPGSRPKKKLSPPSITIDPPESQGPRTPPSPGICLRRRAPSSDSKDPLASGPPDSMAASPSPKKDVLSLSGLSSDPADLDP

For the compound `NC1(C(=O)N[C@H]2CC[C@@H](CC(=O)Nc3cc(C(F)(F)F)cc(C(F)(F)F)c3)CC2)CCOCC1` [Compound 147, 4-amino-N-(cis-4-(2-(3,5-bis(trifluoromethyl)phenylamino)-2-oxoethyl)cyclohexyl)tetrahydro-2H-pyran-4-carboxamide], the IC50 in test [1] is 4.59 µM.
The same measure, in the same setting: under `N[C@H]1CC[C@@H](CC(=O)Nc2cc(C(F)(F)F)cc(C(F)(F)F)c2)CC1` [Compound 106, 2-(cis-4-aminocyclohexyl)-N-(3,5-bis(trifluoromethyl)phenyl)acetamide] stands 6.11 µM; under `O=C(C[C@H]1CC[C@@H](NC(=O)C2CCNCC2)CC1)Nc1cc(C(F)(F)F)cc(C(F)(F)F)c1` [Compound 144, N-(cis-4-(2-(3,5-bis(trifluoromethyl)phenylamino)-2-oxoethyl)cyclohexyl)piperidine-4-carboxamide], 3.82 µM; under `NC1(C(=O)N[C@H]2CC[C@@H](CNC(=O)c3cc(C(F)(F)F)cc(C(F)(F)F)c3)CC2)CCCC1` [Compound 140, N-((cis-4-(1-aminocyclopentanecarboxamido)cyclohexyl)methyl)-3,5-bis(trifluoromethyl)benzamide], 9.67 µM.
With `O=C(NC[C@H]1CC[C@@H](N2CC(C(F)(F)F)(C(F)(F)F)OC2=O)CC1)c1cc(F)cc(C(F)(F)F)c1` [Compound 154, 3-fluoro-N-((cis-4-(2-oxo-5,5-bis(trifluoromethyl)oxazolidin-3-yl)cyclohexyl)methyl)-5-(trifluoromethyl)benzamide], the IC50 in test [2] was 6.16 µM.
On to `NC1(C(=O)N[C@H]2CC[C@@H](CC(=O)NCc3cccc(OC(F)(F)F)c3)CC2)CCCCC1` [Compound 109, 1-amino-N-(cis-4-(2-oxo-2-(3-(trifluoromethoxy)benzylamino)ethyl)cyclohexyl)cyclohexanecarboxamide], for which the IC50 in test [1] is no less than 10 µM.
Take `CC(C)(C)OC(=O)NC1(CN[C@H]2CC[C@@H](CNC(=O)c3cc(C(F)(F)F)cc(C(F)(F)F)c3)CC2)CCCC1` [Compound 6, tert-butyl 1-((cis-4-((3,5-bis(trifluoromethyl)benzamido)methyl)cyclohexylamino)methyl)cyclopentylcarbamate]: the IC50 in test [2] is 0.28 µM.
In the case of `O=C(C[C@H]1CC[C@H](NC(=O)[C@H]2CCCN2)CC1)Nc1cc(C(F)(F)F)cc(C(F)(F)F)c1` [Compound 118, (R)-N-(trans-4-(2-(3,5-bis(trifluoromethyl)phenylamino)-2-oxoethyl)cyclohexyl)pyrrolidine-2-carboxamide], the IC50 in test [1] came out at 4.89 µM.
In the case of `Cc1cccc(CN[C@H]2CC[C@H](CNC(=O)c3cc(C(F)(F)F)cc(C(F)(F)F)c3)CC2)c1O` [Compound 28, N-((trans-4-(2-hydroxy-3-methylbenzylamino)cyclohexyl)methyl)-3,5-bis(trifluoromethyl)benzamide], the IC50 in test [2] was determined as 2.24 µM.
Consider `NC1(C(=O)N[C@H]2CC[C@@H](CC(=O)Nc3cc(C(F)(F)F)cc(C(F)(F)F)c3)CC2)CC1` [Compound 149, 1-amino-N-(cis-4-(2-(3,5-bis(trifluoromethyl)phenylamino)-2-oxoethyl)cyclohexyl)cyclopropanecarboxamide], for which the IC50 in test [1] is 4.07 µM.
The same measure, in the same setting: under `O=C(C[C@H]1CC[C@@H](NC(=O)C2(O)CCNCC2)CC1)Nc1cc(C(F)(F)F)cc(C(F)(F)F)c1` [Compound 148, N-(cis-4-(2-(3,5-bis(trifluoromethyl)phenylamino)-2-oxoethyl)cyclohexyl)-4-hydroxypipendine-4-carboxamide] stands 2.94 µM.
With `O=C(CC1CC1)NCCN[C@H]1CC[C@H](CNC(=O)c2cc(C(F)(F)F)cc(C(F)(F)F)c2)CC1` [Compound 103, N-((trans-4-(2-(2-cyclopropylacetamido)ethylamino)cyclohexyl)methyl)-3,5-bis(trifluoromethyl)benzamide], the IC50 in test [2] stood at 2.08 µM.
For `O=C(C[C@H]1CC[C@H](NC(=O)[C@@H]2CCCCN2)CC1)Nc1cc(C(F)(F)F)cc(C(F)(F)F)c1` [Compound 120, (S)-N-(trans-4-(2-(3,5-bis(trifluoromethyl)phenylamino)-2-oxoethyl)cyclohexyl)piperidine-2-carboxamide], in test [1], the IC50 turned out to be 4.44 µM.
For the compound `NC1(C(=O)N[C@H]2CC[C@@H](CNC(=O)c3cc(F)cc(C(F)(F)F)c3)CC2)CCCC1` [Compound 141, N-((cis-4-(1-aminocyclopentanecarboxamido)cyclohexyl)methyl)-3-fluoro-5-(trifluoromethyl)benzamide], the IC50 in test [1] is no less than 10 µM.
For the compound `Cc1ccc(-c2csc(NC(=O)C[C@H]3CC[C@@H](NC(=O)[C@@H]4C[C@@H](c5ccccc5)CN4)CC3)n2)cc1` [Compound 129, (2S,4S)-N-(cis-4-(2-oxo-2-(4-p-tolylthiazol-2-ylamino)ethyl)cyclohexyl)-4-phenylpyrrolidine-2-carboxamide], the IC50 in test [1] was 5.29 µM.
Regarding `Cc1ccc(-c2csc(NC(=O)C[C@H]3CC[C@@H](NC(=O)[C@@H]4C[C@H](c5ccccc5)CN4)CC3)n2)cc1` [Compound 130, (2S,4R)-N-(cis-4-(2-oxo-2-(4-p-tolylthiazol-2-ylamino)ethyl)cyclohexyl)-4-phenylpyrrolidine-2-carboxamide], the IC50 in test [1] came out at 4.11 µM.
Turning to `Cc1ccc(-c2csc(NC(=O)C[C@H]3CC[C@@H](NCC4(NC(=O)OC(C)(C)C)CCCC4)CC3)n2)cc1` [Compound 37], the IC50 in test [2] was determined as 5.37 µM.
Still for that read-out and setting: the result for `Cc1cc(CN[C@H]2CC[C@@H](CNC(=O)c3cc(F)cc(C(F)(F)F)c3)CC2)cc(C)c1O` [Compound 5, 3-fluoro-N-((cis-4-(4-hydroxy-3,5-dimethylbenzylamino)cyclohexyl)methyl)-5-(trifluoromethyl)benzamide] reads 0.25 µM.
As for `O=C(NC[C@H]1CC[C@@H](NCCNS(=O)(=O)C(F)(F)F)CC1)c1cc(F)cc(C(F)(F)F)c1` [Compound 156, 3-fluoro-5-(trifluoromethyl)-N-((cis-4-(2-(trifluoromethylsulfonamido)ethylamino)cyclohexyl)methyl)benzamide], in test [1], the IC50 was no less than 10 µM.
With `O=C(NC[C@H]1CC[C@H](NC(=O)C2(c3ccccc3)CCNCC2)CC1)c1cc(C(F)(F)F)cc(C(F)(F)F)c1` [Compound 136, N-(trans-4-((3,5-bis(trifluoromethyl)benzamido)methyl)cyclohexyl)-4-phenylpiperidine-4-carboxamide], the IC50 in test [1] is 3.81 µM.
Same read-out and setting: the result for `O=C(NC[C@H]1CC[C@H](NCCNS(=O)(=O)C(F)(F)F)CC1)c1cc(C(F)(F)F)cc(C(F)(F)F)c1` [Compound 155, 3,5-bis(trifluoromethyl)-N-((trans-4-(2-(trifluoromethylsulfonamido)ethylamino)cyclohexyl)methyl)benzamide] reads 2.65 µM; that for `Cc1ccc(-c2csc(NC(=O)C[C@H]3CC[C@@H](NC(=O)[C@@H]4CC[C@H](c5ccccc5)N4)CC3)n2)cc1` [Compound 131], 7.56 µM.
In the case of `O=C(NC[C@H]1CC[C@@H](NC(=O)C2(c3ccccc3)CCNCC2)CC1)c1cc(C(F)(F)F)cc(C(F)(F)F)c1` [Compound 128, N-(cis-4-((3,5-bis(trifluoromethyl)benzamido)methyl)cyclohexyl)-4-phenylpiperidine-4-carboxamide], in test [1], the concentration for half-maximal inhibition (IC50) was determined as 5.78 µM.
As for `NC1(C(=O)N[C@H]2CC[C@H](CNC(=O)c3cc(C(F)(F)F)cc(C(F)(F)F)c3)CC2)CCCC1` [Compound 142, N-((trans-4-(1-aminocyclopentanecarboxamido)cyclohexyl)methyl)-3,5-bis(trifluoromethyl)benzamide], the IC50 in test [1] was no less than 10 µM.
Still for that read-out and setting: the result for `O=C(C[C@H]1CC[C@@H](NC(=O)[C@H]2C[C@H](O)CN2)CC1)Nc1cc(C(F)(F)F)cc(C(F)(F)F)c1` [Compound 145] reads 7.6 µM; that for `O=C(C[C@H]1CC[C@@H](NC(=O)C2(c3ccccc3)CCNCC2)CC1)NCc1cccc(OC(F)(F)F)c1` [Compound 114, N-(cis-4-(2-oxo-2-(3-(trifluoromethoxy)benzylamino)ethyl)cyclohexyl)-4-phenylpiperidin-4-carboxamide], no less than 10 µM; that for `Cc1ccc(-c2csc(NC(=O)C[C@H]3CC[C@@H](NC(=O)[C@H]4CC[C@@H](c5ccccc5)N4)CC3)n2)cc1` [Compound 138, (2R,5S)-N-(cis-4-(2-oxo-2-(4-p-tolylthiazol-2-ylamino)ethyl)cyclohexyl)-5-phenylpyrrolidine-2-carboxamide], 4.88 µM.
